Active and inactive are the calls of the source. No cut-off for these calls is given here.
Assays:
[1] = molecular target: BDNF/NT-3 growth factors receptor (Mus musculus) (UniProt P15209); assay: Agonist activity at TrkB receptor in Swiss mouse primary cortical neurons assessed as increase in MAP2 expression after 72 hrs by Western blot analysis
[2] = organism: Homo sapiens; assay: Selectivity ratio of EC50 for RFP-fused TrkA receptor (unknown origin) expressed in HEK293T cells to EC50 for […] receptor (unknown origin) expressed in HEK293T cells; assay type: cell-based
[3] = molecular target: T1, High affinity nerve growth factor receptor (Homo sapiens, UniProt P04629); assay: Agonist activity at RFP-fused TrkA receptor (unknown origin) expressed in HEK293T cells assessed as increase in TrkA phosphorylation at Y490 residue at 1 uM after 10 to 15 mins by Western blot analysis; assay type: cell-based
Target sequence in this assay (P04629 33-796 limits assumed): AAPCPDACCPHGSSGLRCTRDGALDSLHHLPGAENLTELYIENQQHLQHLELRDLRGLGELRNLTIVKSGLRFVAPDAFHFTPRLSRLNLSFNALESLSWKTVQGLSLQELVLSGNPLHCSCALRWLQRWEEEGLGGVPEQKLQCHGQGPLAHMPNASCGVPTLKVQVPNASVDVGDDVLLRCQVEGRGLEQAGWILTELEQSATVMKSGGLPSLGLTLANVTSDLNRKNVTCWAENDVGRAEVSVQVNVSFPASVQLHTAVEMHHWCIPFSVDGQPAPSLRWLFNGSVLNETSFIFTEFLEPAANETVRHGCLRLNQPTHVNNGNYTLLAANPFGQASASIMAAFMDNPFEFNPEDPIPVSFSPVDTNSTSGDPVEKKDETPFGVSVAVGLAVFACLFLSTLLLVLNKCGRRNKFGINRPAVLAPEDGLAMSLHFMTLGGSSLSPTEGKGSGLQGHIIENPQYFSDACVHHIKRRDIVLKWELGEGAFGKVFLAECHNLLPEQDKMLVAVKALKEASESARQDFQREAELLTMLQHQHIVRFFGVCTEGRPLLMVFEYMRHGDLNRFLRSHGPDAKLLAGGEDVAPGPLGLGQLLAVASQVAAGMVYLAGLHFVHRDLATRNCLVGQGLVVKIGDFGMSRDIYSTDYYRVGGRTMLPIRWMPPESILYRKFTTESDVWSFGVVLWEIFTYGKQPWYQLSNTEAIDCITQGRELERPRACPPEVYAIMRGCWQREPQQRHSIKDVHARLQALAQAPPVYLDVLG

[4] = molecular target: T1, High affinity nerve growth factor receptor; assay: Agonist activity at RFP-fused TrkA receptor (unknown origin) expressed in HEK293T cells after 6 hrs by luciferase reporter gene assay; assay type: cell-based
Target sequence in this assay (P04629 whole entry, the tested form may be a part): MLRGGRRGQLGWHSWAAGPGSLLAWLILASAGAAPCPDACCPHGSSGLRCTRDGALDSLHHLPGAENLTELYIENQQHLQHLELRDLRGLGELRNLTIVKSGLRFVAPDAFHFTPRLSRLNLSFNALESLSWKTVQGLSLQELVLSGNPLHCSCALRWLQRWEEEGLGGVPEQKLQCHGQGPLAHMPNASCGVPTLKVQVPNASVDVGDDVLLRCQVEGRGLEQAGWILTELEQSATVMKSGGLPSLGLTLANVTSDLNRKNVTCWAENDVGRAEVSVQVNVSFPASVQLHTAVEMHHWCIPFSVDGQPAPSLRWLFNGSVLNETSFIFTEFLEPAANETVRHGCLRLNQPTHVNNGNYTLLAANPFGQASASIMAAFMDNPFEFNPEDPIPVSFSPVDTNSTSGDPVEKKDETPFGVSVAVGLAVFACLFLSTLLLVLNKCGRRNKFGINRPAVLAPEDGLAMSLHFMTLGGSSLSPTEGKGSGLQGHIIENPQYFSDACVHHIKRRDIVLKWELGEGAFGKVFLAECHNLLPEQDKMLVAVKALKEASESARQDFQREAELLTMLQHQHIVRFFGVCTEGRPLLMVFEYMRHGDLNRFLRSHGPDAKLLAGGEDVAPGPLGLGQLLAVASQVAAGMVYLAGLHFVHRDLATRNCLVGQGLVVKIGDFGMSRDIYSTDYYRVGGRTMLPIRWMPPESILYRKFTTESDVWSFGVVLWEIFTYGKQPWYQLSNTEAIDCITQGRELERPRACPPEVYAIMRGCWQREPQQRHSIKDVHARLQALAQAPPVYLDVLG

[5] = molecular target: T2, BDNF/NT-3 growth factors receptor (Homo sapiens, UniProt Q16620); assay: Agonist activity at EGFP-fused TrkB receptor (unknown origin) expressed in HEK293T cells assessed as increase in ERK1/2 phosphorylation after 15 mins by Western blot analysis; assay type: cell-based
Target sequence in this assay (Q16620 32-822 limits assumed): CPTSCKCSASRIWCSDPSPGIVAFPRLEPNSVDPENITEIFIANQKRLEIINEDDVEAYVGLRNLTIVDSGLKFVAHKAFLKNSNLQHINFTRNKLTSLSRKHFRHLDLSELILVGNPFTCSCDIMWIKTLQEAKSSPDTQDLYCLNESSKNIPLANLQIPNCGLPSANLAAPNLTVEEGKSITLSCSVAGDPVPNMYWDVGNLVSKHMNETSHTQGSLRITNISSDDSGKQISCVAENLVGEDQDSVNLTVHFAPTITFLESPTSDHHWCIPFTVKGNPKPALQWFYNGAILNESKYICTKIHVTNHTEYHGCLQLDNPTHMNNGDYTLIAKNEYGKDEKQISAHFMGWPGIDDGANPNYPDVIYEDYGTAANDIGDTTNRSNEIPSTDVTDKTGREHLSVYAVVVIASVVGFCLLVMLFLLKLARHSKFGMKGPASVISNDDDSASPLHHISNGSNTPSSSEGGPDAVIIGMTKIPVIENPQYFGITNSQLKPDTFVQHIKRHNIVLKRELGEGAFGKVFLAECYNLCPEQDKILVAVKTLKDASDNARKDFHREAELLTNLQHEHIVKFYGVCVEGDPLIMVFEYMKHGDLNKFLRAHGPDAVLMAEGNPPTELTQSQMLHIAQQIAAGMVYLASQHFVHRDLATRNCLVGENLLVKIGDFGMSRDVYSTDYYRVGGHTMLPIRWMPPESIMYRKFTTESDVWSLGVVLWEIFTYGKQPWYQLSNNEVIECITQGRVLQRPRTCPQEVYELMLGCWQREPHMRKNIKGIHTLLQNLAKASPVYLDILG

[6] = molecular target: T2, BDNF/NT-3 growth factors receptor; assay: Agonist activity at EGFP-fused TrkB receptor (unknown origin) expressed in HEK293T cells assessed as increase in TrkB phosphorylation at Y705 residue after 10 to 15 mins by Western blot analysis; assay type: cell-based
Target sequence in this assay (Q16620 32-822 limits assumed): as above

[7] = molecular target: T2, BDNF/NT-3 growth factors receptor; assay: Agonist activity at EGFP-fused TrkB receptor (unknown origin) expressed in HEK293T cells after 6 hrs by luciferase reporter gene assay; assay type: cell-based
Target sequence in this assay (Q16620 whole entry, the tested form may be a part): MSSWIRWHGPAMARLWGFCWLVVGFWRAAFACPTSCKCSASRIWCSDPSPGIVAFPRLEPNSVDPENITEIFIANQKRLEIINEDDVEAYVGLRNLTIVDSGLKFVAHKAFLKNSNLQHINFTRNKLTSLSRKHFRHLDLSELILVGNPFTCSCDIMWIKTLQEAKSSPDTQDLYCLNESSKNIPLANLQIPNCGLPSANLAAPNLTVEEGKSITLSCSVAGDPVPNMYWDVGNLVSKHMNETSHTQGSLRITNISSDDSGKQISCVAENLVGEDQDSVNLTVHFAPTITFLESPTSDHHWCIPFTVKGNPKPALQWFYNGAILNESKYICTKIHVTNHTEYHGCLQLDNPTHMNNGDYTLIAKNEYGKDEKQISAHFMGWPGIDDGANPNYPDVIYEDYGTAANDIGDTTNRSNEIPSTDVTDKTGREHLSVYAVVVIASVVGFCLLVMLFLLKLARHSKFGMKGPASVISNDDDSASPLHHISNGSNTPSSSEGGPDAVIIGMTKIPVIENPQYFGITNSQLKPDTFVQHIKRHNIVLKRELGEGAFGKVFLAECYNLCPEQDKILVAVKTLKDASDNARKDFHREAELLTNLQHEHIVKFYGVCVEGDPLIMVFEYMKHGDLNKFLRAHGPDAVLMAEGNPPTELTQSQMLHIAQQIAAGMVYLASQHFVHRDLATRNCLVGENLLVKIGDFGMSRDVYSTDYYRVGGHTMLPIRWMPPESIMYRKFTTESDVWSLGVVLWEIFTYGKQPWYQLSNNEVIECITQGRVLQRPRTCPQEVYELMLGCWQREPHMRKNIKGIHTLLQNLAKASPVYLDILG

[8] = molecular target: Luciferin 4-monooxygenase (Photinus pyralis) (UniProt P08659); assay: Activation of firefly luciferase activity expressed in HEK293T cells after 6 hrs by luminescence assay; assay type: cell-based
Chain of Luciferin 4-monooxygenase (Photinus pyralis) (P08659 whole entry): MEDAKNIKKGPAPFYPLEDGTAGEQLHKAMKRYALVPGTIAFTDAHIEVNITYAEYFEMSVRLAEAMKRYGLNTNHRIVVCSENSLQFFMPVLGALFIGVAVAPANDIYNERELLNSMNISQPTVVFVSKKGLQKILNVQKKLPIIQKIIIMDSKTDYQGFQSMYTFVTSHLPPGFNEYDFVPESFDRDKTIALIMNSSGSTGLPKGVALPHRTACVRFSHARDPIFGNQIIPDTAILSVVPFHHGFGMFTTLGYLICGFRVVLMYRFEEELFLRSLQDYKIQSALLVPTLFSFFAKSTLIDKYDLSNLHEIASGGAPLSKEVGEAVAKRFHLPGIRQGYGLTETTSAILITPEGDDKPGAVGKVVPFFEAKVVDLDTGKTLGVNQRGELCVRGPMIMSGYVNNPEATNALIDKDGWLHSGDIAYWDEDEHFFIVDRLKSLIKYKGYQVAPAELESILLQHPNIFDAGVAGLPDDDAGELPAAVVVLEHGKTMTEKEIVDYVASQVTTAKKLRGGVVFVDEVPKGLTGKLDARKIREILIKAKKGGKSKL

[9] = molecular target: BDNF/NT-3 growth factors receptor (Mus musculus) (UniProt P15209); assay: Agonist activity at TrkB receptor in Swiss mouse primary cortical neurons assessed as increase in TrkB phosphorylation at Y705 residue after 15 mins by Western blot analysis
[10] = molecular target: BDNF/NT-3 growth factors receptor (Mus musculus) (UniProt P15209); assay: Agonist activity at TrkB receptor in Swiss mouse primary cortical neurons assessed as increase in PSD95 expression after 72 hrs by Western blot analysis
[11] = molecular target: BDNF/NT-3 growth factors receptor (Mus musculus) (UniProt P15209); assay: Agonist activity at TrkB receptor in Swiss mouse primary cortical neurons transfected with AAV2 Tdtomato assessed as increase in dendritic arborization at 100 nM after 72 hrs by confocal microscopic analysis
[12] = molecular target: T2, BDNF/NT-3 growth factors receptor; assay: Agonist activity at EGFP-fused TrkB receptor (unknown origin) expressed in HEK293T cells assessed as increase in TrkB phosphorylation at Y705 residue at 1 uM after 10 to 15 mins by Western blot analysis; assay type: cell-based
Target sequence in this assay (Q16620 32-822 limits assumed): as the sequence (Q16620 32-822 limits assumed) above

Chain of BDNF/NT-3 growth factors receptor (Mus musculus) (P15209 whole entry, the tested form may be a part): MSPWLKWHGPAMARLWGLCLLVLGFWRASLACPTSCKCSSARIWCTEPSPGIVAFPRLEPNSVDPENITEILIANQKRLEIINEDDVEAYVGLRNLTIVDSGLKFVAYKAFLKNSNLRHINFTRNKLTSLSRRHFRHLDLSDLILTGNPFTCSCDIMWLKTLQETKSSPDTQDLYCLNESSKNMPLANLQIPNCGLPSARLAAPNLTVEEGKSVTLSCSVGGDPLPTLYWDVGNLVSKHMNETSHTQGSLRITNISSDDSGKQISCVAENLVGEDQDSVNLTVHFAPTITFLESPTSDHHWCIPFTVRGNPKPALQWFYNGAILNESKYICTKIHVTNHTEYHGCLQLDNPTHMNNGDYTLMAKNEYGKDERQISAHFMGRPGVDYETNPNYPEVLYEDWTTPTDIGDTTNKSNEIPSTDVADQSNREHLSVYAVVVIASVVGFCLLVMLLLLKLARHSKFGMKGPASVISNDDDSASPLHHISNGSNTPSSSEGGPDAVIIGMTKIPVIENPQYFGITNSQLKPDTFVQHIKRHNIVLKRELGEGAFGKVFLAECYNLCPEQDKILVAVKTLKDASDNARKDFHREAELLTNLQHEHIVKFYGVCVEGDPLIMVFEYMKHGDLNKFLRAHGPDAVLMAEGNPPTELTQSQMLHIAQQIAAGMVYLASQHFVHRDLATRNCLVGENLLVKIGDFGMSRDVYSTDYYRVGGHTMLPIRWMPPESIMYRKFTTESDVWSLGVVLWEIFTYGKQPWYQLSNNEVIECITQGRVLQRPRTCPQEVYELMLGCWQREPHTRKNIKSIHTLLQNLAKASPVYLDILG

| Compound | Activity [1] | Ratio EC50 [2] | Activity [3] | EC50 [4] [nM] | Activity [5] | Activity [6] | EC50 [7] [nM] | Activity [8] | Activity [9] | Activity [10] | Activity [11] | Activity [12] |
| --- | --- | --- | --- | --- | --- | --- | --- | --- | --- | --- | --- | --- |
| COc1ccc(-c2cc3cccc(O)c3c(=O)o2)cc1 | Dose-dependent effect | > 7 | Active | 667 | Dose-dependent effect | Dose-dependent effect | 87.2 | inactive | Dose-dependent effect | inactive | Active | Active |
| O=c1oc(-c2ccc3c(c2)OCO3)cc2cccc(O)c12 |  |  |  |  |  |  |  |  |  |  |  | Active |
